Data from ChEMBL document CHEMBL1201862, “PubChem BioAssay data set” (2004).
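Exposure lasted 48 hours, with cells grown in 96-well plates and compounds tested at five concentrations. At the GI50, growth is halved.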 The source made the active and inactive calls. Cut-off read from the data, not from the text of the source: active = GI50 up to about 1.1 µM and inactive = higher.

Legend:
Test in all cases: NCI anticancer screen, dose series, 48 h
K562 = tested on: K562
SF-268 = tested on: SF-268
786-0 = tested on: 786-0
RXF 393 = tested on: RXF 393
SNB-19 = tested on: SNB-19
KM12 = tested on: KM12
OVCAR-3 = tested on: OVCAR-3
Malme-3M = tested on: Malme-3M
DU-145 = tested on: DU-145
HT-29 = tested on: HT-29
U-251 = tested on: U-251
T47D = tested on: T47D
HOP-62 = tested on: HOP-62
SF-295 = tested on: SF-295
NCI-H522 = tested on: NCI-H522
OVCAR-4 = tested on: OVCAR-4
LOX IMVI = tested on: LOX IMVI
BT-549 = tested on: BT-549
SF-539 = tested on: SF-539

Measured: GI50

c1ccc(NN(Cc2cnccn2)c2ccccc2)cc1
inactive: K562 47.5 µM | SF-268 > 100 µM | 786-0 > 100 µM | RXF 393 > 100 µM | SNB-19 > 100 µM | KM12 > 100 µM | OVCAR-3 63.4 µM | Malme-3M > 100 µM | DU-145 > 100 µM | HT-29 97.3 µM | U-251 65 µM | T47D 68.4 µM | HOP-62 > 100 µM | SF-295 73.8 µM | NCI-H522 44 µM | OVCAR-4 63 µM | LOX IMVI 77.6 µM | BT-549 > 100 µM | SF-539 > 100 µM

Clc1ccc(Cc2nc3ccccc3nc2-c2cccc(Cl)c2)cc1
inactive: K562 1.94 µM | SF-268 18.3 µM | 786-0 1.84 µM | RXF 393 2.04 µM | SNB-19 1.8 µM | KM12 3.48 µM | OVCAR-3 4.21 µM | Malme-3M 2.25 µM | DU-145 14.2 µM | HT-29 2.61 µM | U-251 4.68 µM | T47D 3.35 µM | HOP-62 17.8 µM | SF-295 17.1 µM | NCI-H522 1.61 µM | OVCAR-4 1.51 µM | LOX IMVI 1.95 µM | BT-549 4.49 µM | SF-539 2.25 µM

Clc1ccc(/C=C/c2nc(Cl)c(-c3ccc(Cl)cc3)c(Cl)n2)cc1
inactive: K562 32.1 µM | SF-268 > 100 µM | 786-0 43.8 µM | RXF 393 53.8 µM | SNB-19 > 100 µM | KM12 > 100 µM | OVCAR-3 > 100 µM | Malme-3M > 100 µM | DU-145 76.4 µM | HT-29 48.9 µM | U-251 40.6 µM | T47D 38.3 µM | HOP-62 > 100 µM | SF-295 52.1 µM | NCI-H522 31.5 µM | OVCAR-4 71.6 µM | LOX IMVI 86.9 µM | BT-549 > 100 µM | SF-539 57.7 µM

COC1CC(C)(NC(C)=O)C2OC(c3ccccc3)OCC2O1 (centres undefined)
inactive: K562 > 100 µM | SF-268 > 100 µM | 786-0 > 100 µM | RXF 393 > 100 µM | SNB-19 > 100 µM | KM12 > 100 µM | OVCAR-3 > 100 µM | Malme-3M > 100 µM | DU-145 > 100 µM | HT-29 > 100 µM | U-251 > 100 µM | T47D > 100 µM | HOP-62 > 100 µM | SF-295 > 100 µM | NCI-H522 > 100 µM | OVCAR-4 > 100 µM | LOX IMVI > 100 µM | BT-549 > 100 µM | SF-539 > 100 µM

CCC(c1ccccc1)c1cc(C(C)(C)C)cc(C(C)(C)C)c1O (centres undefined)
inactive: K562 16.7 µM | SF-268 15.3 µM | 786-0 15.6 µM | RXF 393 20 µM | SNB-19 18.3 µM | KM12 18.4 µM | OVCAR-3 14.2 µM | Malme-3M 13.9 µM | DU-145 19.1 µM | HT-29 14.9 µM | U-251 17.7 µM | T47D 16.1 µM | HOP-62 16.2 µM | SF-295 13.9 µM | NCI-H522 13.7 µM | OVCAR-4 15.8 µM | LOX IMVI 18 µM | BT-549 19.3 µM | SF-539 17.4 µM

CN(c1ccc(Cl)cc1)S(=O)(=O)c1ccccc1
inactive: K562 36.8 µM | SF-268 49 µM | 786-0 > 100 µM | RXF 393 11.3 µM | SNB-19 97.7 µM | KM12 40.8 µM | OVCAR-3 64.3 µM | Malme-3M > 100 µM | DU-145 > 100 µM | HT-29 42.3 µM | U-251 42.9 µM | T47D 34.2 µM | HOP-62 71.9 µM | SF-295 65.3 µM | NCI-H522 76.7 µM | OVCAR-4 77.1 µM | LOX IMVI 42.8 µM | BT-549 32 µM | SF-539 43 µM

CC(C)Sc1nc(C#N)cc2c1CCCC2
inactive: K562 48.9 µM | SF-268 50.7 µM | 786-0 54 µM | RXF 393 27.7 µM | SNB-19 > 100 µM | KM12 28.6 µM | OVCAR-3 30.3 µM | Malme-3M 36.1 µM | DU-145 > 100 µM | HT-29 > 100 µM | U-251 46.5 µM | T47D 56.9 µM | HOP-62 85.7 µM | SF-295 40.9 µM | NCI-H522 21.1 µM | OVCAR-4 53.1 µM | LOX IMVI 25.4 µM | BT-549 99.1 µM | SF-539 42.5 µM

O=C1CSCC(=O)Nc2ccccc2N1
inactive: K562 > 100 µM | SF-268 > 100 µM | 786-0 > 100 µM | RXF 393 > 100 µM | SNB-19 > 100 µM | KM12 > 100 µM | OVCAR-3 > 100 µM | Malme-3M > 100 µM | DU-145 > 100 µM | HT-29 > 100 µM | U-251 > 100 µM | T47D > 100 µM | HOP-62 > 100 µM | SF-295 > 100 µM | NCI-H522 > 100 µM | OVCAR-4 > 100 µM | LOX IMVI > 100 µM | BT-549 > 100 µM | SF-539 > 100 µM

COCn1cnc2c(=O)n(-c3ccc(C)cc3)c(=S)n(-c3ccc(C)cc3)c21
inactive: K562 > 100 µM | SF-268 > 100 µM | 786-0 > 100 µM | RXF 393 78.3 µM | SNB-19 > 100 µM | KM12 > 100 µM | OVCAR-3 > 100 µM | Malme-3M > 100 µM | DU-145 > 100 µM | HT-29 > 100 µM | U-251 > 100 µM | T47D > 100 µM | HOP-62 > 100 µM | SF-295 > 100 µM | NCI-H522 > 100 µM | OVCAR-4 > 100 µM | LOX IMVI > 100 µM | BT-549 > 100 µM | SF-539 > 100 µM

CC(C)c1ccccc1[S+]([O-])c1ccccc1C(C)(C)O (centres undefined)
inactive: K562 60.4 µM | SF-268 > 100 µM | 786-0 > 100 µM | RXF 393 > 100 µM | SNB-19 37.3 µM | KM12 30.8 µM | OVCAR-3 > 100 µM | Malme-3M > 100 µM | DU-145 > 100 µM | HT-29 96.2 µM | U-251 18.9 µM | T47D > 100 µM | HOP-62 22.5 µM | SF-295 21.1 µM | NCI-H522 96.8 µM | OVCAR-4 > 100 µM | LOX IMVI 69.5 µM | BT-549 > 100 µM | SF-539 > 100 µM

CC1(C)CCCCCCCCCC(C)(CCCCCCCCCCCCO)C1=O (centres undefined)
inactive: K562 20 µM | SF-268 17.3 µM | 786-0 18.6 µM | RXF 393 18.7 µM | SNB-19 13 µM | KM12 17.1 µM | OVCAR-3 15.6 µM | Malme-3M 16.4 µM | DU-145 17.7 µM | HT-29 16.9 µM | U-251 17.8 µM | T47D 16.8 µM | HOP-62 22.5 µM | SF-295 16.2 µM | NCI-H522 16.5 µM | OVCAR-4 17.1 µM | LOX IMVI 17.6 µM | BT-549 16.6 µM | SF-539 16.6 µM
